Earlier results on 1 compound are cited in US4305927A, “Method for the management of intraocular pressure” (ALZA Corporation, priority 1980, dated 1981).

The data set concerns carbonic anhydrase.

On to `CC(=O)Nc1nnc(S(N)(=O)=O)s1` [acetazolamide, 5-acetamido-1,3,4-thiadiazole-2-sulfonamide], for which the “action on carbonic anhydrase” value is “enzyme inhibitor that acts on carbonic anhydrase”.
